Data reported in patent US8034810B2, “Arylsulfonamido-substituted hydroxamic acid derivatives” (Novartis AG, priority 1999, dated 2011).
Where a name gives a salt, the structure may show the parent alone.

Target: T1, MT1-MMP (Homo sapiens, UniProt P50281)
T1 construct: made in house
Experiment: In vitro inhibition of MT1-MMP, fluorogenic peptide substrate
Type: biochemical
Conditions: catalytic domain of human MT1-MMP; substrate 10 μM; 37° C.
Procedure: The inhibitory activities of compounds of formula I on MT1-MMP, MMP1 (collagenase 1) and MMP2 (gelatinase A) can be determined as follows:
Stock solutions of substrate (MCA-Pro-Leu-Gly-Leu-Dpa-Ala-Arg-NH2, Knight, C. G., Willenbrock, F., Murphy, G., A novel coumarin-labelled peptide for sensitive continuous assays of the matrix metalloproteinases, FEBS lett., 296, 263-266, (1992)), are prepared in 100% DMSO at a concentration 1.0 mM. Stock solutions of inhibitors are prepared in 100% DMSO. The inhibitor is diluted into the assays from a solution in 100% DMSO, and controls substitute an equal volume of DMSO so that the final DMSO concentration from inhibitor and substrate dilutions in all assays is 6.0%. Assays are performed in assay buffer (150 mM NaCl, 10 mM CaCl2, 50 mM Tris-Cl pH7.5, 0.05% Brij-35) containing 6.0% DMSO once the substrate and inhibitor are diluted into it. The substrate concentration used in the assays is 10 μM. The test is carried out at 37° C. The fluorescence changes are monitored using an excitation wavelength of 320 nm and an emission wavelength of […]. The reaction mixture is added in duplicate to appropriate wells of a 96 well microfluor plate. The reaction mixture is preincubated with the inhibitor for 30 min, the reaction is started by the addition of MMP enzyme and the fluorescence intensity is measured for 10 min. A time point that is on a linear part of the curve is chosen to determine the activity. The inhibition results are expressed as the inhibitor concentrations that produced 50% inhibition (IC50) of the activity in the control (non-inhibited) reaction. In this test, the compounds of the formula I and their pharmacologically acceptable salts have an inhibiting concentration IC50 [μmol/litre] of 0.0001 and 0.030, usually of 0.0002 to 0.010, for MMP2 and an inhibiting concentration IC50 [μmol/litre] of 0.0005 and 0.125, usually of 0.001 to 0.05, for MT1-MMP.
Plasmid: The catalytic domain of the cDNA fragment encoding a full length of human MT1-MMP gene [from Prof. Motoharu Seiki, Institute of Medical Science, The University of Tokyo; Sato, H., Takino, T., Okada, Y., Cao, J., Shinagawa, A., Yamamoto, E. and Seiki, M. Nature (London), 370:61-65, 1994)] is amplified by polymerase chain reaction (PCR). […] The resulting PCR product of a 519-bp fragment is subcloned between the NdeI and BamHI unique sites of pET11a (Stratagene). The sequence of catalytic domain of MT1-MMP (CD-MT1-MMP) is verified by the ABI PRIS™ dye terminator cycle sequencing kit with the ABI PRISM™ 377 DNA sequencer (Perkin Elmer).
Expression and Purification: The subcloned CD-MT1-MMP is used to transfect E. coli strain BL21-[DE3] (Hanahan, D. J. Mol. Biol. 1983; 166(4):557-80) and expressed as insoluble inclusion body materials. Transfectants are grown at 37° C. in 50 ml Luria-Bertani (LB) medium in the presence of 50 µg/ml ampicillin to a cell density of OD600=0.6-1.0, and CD-MT1-MMP production is induced with 1 mM isopropyl-1-D-galactopyranoside (IPTG). After treatments with 5 mg/ml lysozyme and 10 μg/ml DNase I, the inclusion bodies are prepared from the harvested cells by using the detergent buffer containing 0.2 M NaCl, 1% w/v deoxycholic acid, and 1% v/v Nonidet P40. The solubilization is achieved by resuspending the inclusion bodies in the solubilization buffer composed of 6 M urea, 100 mM 2-mercaptoethanol, and 20 mM Tris-Cl, pH8.5. The enzyme is purified and renaturated using 10 ml of a Q-Sepharose (Amersham Pharmacia Biotech) column equilibrated with 5 mM CaCl2, 0.02% v/v NaN3, in 20 mM Tris-Cl pH7.5. After washing with three volumes of the same buffer, the bound proteins are eluted with two volumes of a linear gradient of 0.5-1.0 M NaCl. The collected fractions (1 ml each) are dialyzed for 6 h in equilibrated buffer. Superdex G200 column (1×15 cm) (Amersham Pharmacia) is equilibrated in 20 mM Tris-Cl, pH 7.5, 5 mM CaCl2, 0.02% NaN3. The desalted sample is applied to Superdex G200 column and chromatographed at 0.5 ml/min. […]

Molecule	IC50
C#CCOc1ccc(S(=O)(=O)N(CC(=O)NO)Cc2ccc(OC)cc2)cc1 [Example 75, [(4-methoxy-benzyl)-[4-prop-2-ynyloxy-benzenesulfonyl]-amino]-N-hydroxy-acetamide]	1.4 nM
O=C(CN(Cc1ccc(-n2cncn2)cc1)S(=O)(=O)c1ccc(OCc2ccoc2)cc1)NO [Example 82c]	10.7 nM
C=CCCOc1ccc(S(=O)(=O)N(CC(=O)NO)Cc2ccc(-n3ccnc3)cc2)cc1 [Example 80, 2-[(4-But-3-enyloxy-benzenesulfonyl)-(4-imidazol-1-yl-benzyl)-amino]-N-hydroxy-acetamide-hydrochloride]	1.2 nM
C=CCCOc1ccc(S(=O)(=O)N(CC(=O)NO)Cc2cccc(F)n2)cc1 [Example 83a, 2-([4-But-3-enyloxy-benzenesulfonyl]-(6-fluoro-pyridine-2-yl)methyl-amino)-N-hydroxyacetamide]	0.3 nM
C=CCCOc1ccc(S(=O)(=O)N(CC(=O)NO)Cc2ccc(-n3cncn3)cc2)cc1 [Example 79, 2-[(4-but-3-enyloxy-benzenesulfonyl)-(4-[1,2,4]triazol-1-yl-benzyl)-amino]-N-hydroxy-acetamide-hydrochloride salt]	0.7 nM
COc1ccc(CN(CC(=O)NO)S(=O)(=O)c2ccc(OCCCCl)cc2)cc1 [Example 68, 2-{[4-(3-chloro-propoxy)-benzenesulfonyl]-(4-methoxy-benzyl)amino}-N-hydroxy-acetamide]	5.2 nM
C=CCCOc1ccc(S(=O)(=O)N(CC(=O)NO)Cc2ccc(N3CCCC3)cc2)cc1 [Example 84a, 2-[(4-But-3-enyloxy-benzenesulfonyl)-(4-(pyrrolidin-1-yl)-benzyl)-amino]-N-hydroxyacetamide-hydrochloride]	20.4 nM
2-[(Cyclopropylmethoxy-benzenesulfonyl)-(4-[1,2,4]triazol-1-yl-benzyl)-amino]-N-hydroxyacetamide-hydrochloride salt [Example 82b]	0.6 nM
O=C(CN(Cc1ccc(-n2cncn2)cc1)S(=O)(=O)c1ccc(OCCC2CC2)cc1)NO [Example 82a]	1.8 nM
C=CCCOc1ccc(S(=O)(=O)N(CC(=O)NO)Cc2ccc(N3CCOCC3)cc2)cc1 [Example 81, 2-[(4-But-3-enyloxy-benzenesulfonyl)-(4-morpholin-4-yl-benzyl)-amino]-N-hydroxy-acetamide-hydrochloride]	4.6 nM
